The % Inhibition is the percentage by which the read-out fell short of the control. A low value points to little suppression.

Strand notation (5' to 3'): a small letter for the sugar, then the base; units joined by * are phosphorothioate-linked, units joined directly phosphodiester-linked; [ ] holds rarer units or linkages, { } end groups; capitals alone tell only the bases. k = constrained ethyl (cEt); [5mC] = 5-methylcytosine; d = 2'-deoxy (DNA)

In the first series the test system is human SMAD7 mRNA. Put plainly: Antisense inhibition of human SMAD7 mRNA expression in Hep3B cells by 3-10-3 cEt gapmers, 10,000 nM, electroporation (Example 2). Particulars: Hep3B cells, electroporation, 10,000 nM, approximately 24 hours; 3-10-3 cEt gapmers targeting SEQ ID NO: 3 and 4. Format: cell-based. The essentials: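 qRT-PCR (RTS5062) of SMAD7 mRNA, normalised to RIBOGREEN total RNA, gave percent inhibition relative to untreated controls. Hep3B cells at 20,000 per well received 10,000 nM oligonucleotide by electroporation, with ~24 h treatment.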
Regarding “829940 (kG*kT*k[5mC]*dA*dG*dT*dT*dG*dG*dT*dT*dT*dG*kA*kG*kA; antisense) [compound 829940]”, the “% inhibition of SMAD7 mRNA expression” value was found to be 14%.

Regarding “829941 (k[5mC]*kA*kG*dT*d[5mC]*dA*dG*dT*dT*dG*dG*dT*dT*kT*kG*kA; antisense) [compound 829941]”, the “% inhibition of SMAD7 mRNA expression” value was 8%.

Take “829943 (kG*kG*kG*dA*dG*dA*d[5mC]*dT*d[5mC]*d[5mC]*dA*dG*dT*kT*k[5mC]*kG; antisense) [compound 829943]”: the “% inhibition of SMAD7 mRNA expression” value was 43%.

The same series, now with this note: SMAD7 mRNA, Hep3B cells, electroporation with 10,000 nM antisense oligonucleotide, approximately 24 hours, primer probe set RTS5062, relative to untreated control cells.
On to “829936 (k[5mC]*kA*kG*d[5mC]*dT*dA*dG*dG*dT*dG*dA*dT*dA*kA*k[5mC]*kA; antisense) [compound 829936]”, for which the “% Inhibition” value was 14%.

Regarding “829937 (kT*kT*k[5mC]*dA*dG*d[5mC]*dT*dA*dG*dG*dT*dG*dA*kT*kA*kA; antisense) [compound 829937]”, the “% Inhibition” value turned out to be 0%.

As to “829938 (kA*kT*kT*d[5mC]*dA*dG*d[5mC]*dT*dA*dG*dG*dT*dG*kA*kT*kA; antisense) [compound 829938]”, the “% Inhibition” value stood at 17%.

Turning to “829939 (kA*k[5mC]*kA*dT*dT*d[5mC]*dA*dG*d[5mC]*dT*dA*dG*dG*kT*kG*kA; antisense) [compound 829939]”, the “% Inhibition” value came out at 34%.

As for “829944 (k[5mC]*k[5mC]*kA*dG*dT*dT*dA*dA*dT*d[5mC]*dA*dT*dT*kA*k[5mC]*kT; antisense) [compound 829944]”, the “% Inhibition” value is 23%.

As for “829945 (kG*k[5mC]*k[5mC]*dA*dG*dT*dT*dA*dA*dT*d[5mC]*dA*dT*kT*kA*k[5mC]; antisense) [compound 829945]”, the “% Inhibition” value is listed as 31%.

As for “829946 (kG*k[5mC]*kA*dG*d[5mC]*d[5mC]*dA*dG*dT*dT*dA*dA*dT*k[5mC]*kA*kT; antisense) [compound 829946]”, the “% Inhibition” value stood at 44%.

As for “829947 (kG*kG*kG*d[5mC]*dA*dG*d[5mC]*d[5mC]*dA*dG*dT*dT*dA*kA*kT*k[5mC]; antisense) [compound 829947]”, the “% Inhibition” value was determined as 31%.

Regarding “829948 (k[5mC]*kG*kG*dG*d[5mC]*dA*dG*d[5mC]*d[5mC]*dA*dG*dT*dT*kA*kA*kT; antisense) [compound 829948]”, the “% Inhibition” value stood at 43%.

With “829949 (k[5mC]*k[5mC]*kG*dG*dG*d[5mC]*dA*dG*d[5mC]*d[5mC]*dA*dG*dT*kT*kA*kA; antisense) [compound 829949]”, the “% Inhibition” value was determined as 19%.

For “829950 (kT*k[5mC]*k[5mC]*dG*dG*dG*d[5mC]*dA*dG*d[5mC]*d[5mC]*dA*dG*kT*kT*kA; antisense) [compound 829950]”, the “% Inhibition” value was 43%.

As to “829951 (kG*k[5mC]*kT*d[5mC]*d[5mC]*dG*dG*dG*d[5mC]*dA*dG*d[5mC]*d[5mC]*kA*kG*kT; antisense) [compound 829951]”, the “% Inhibition” value was 10%.

Consider “829952 (kA*k[5mC]*k[5mC]*d[5mC]*dG*dT*d[5mC]*dT*dG*dG*dG*d[5mC]*dT*k[5mC]*k[5mC]*kG; antisense) [compound 829952]”, for which the “% Inhibition” value is on record as 2%.

Consider “829953 (kG*kT*k[5mC]*dA*d[5mC]*d[5mC]*d[5mC]*dG*dT*d[5mC]*dT*dG*dG*kG*k[5mC]*kT; antisense) [compound 829953]”, for which the “% Inhibition” value amounted to 34%.

With “829954 (kT*kT*kG*dT*d[5mC]*dA*d[5mC]*d[5mC]*d[5mC]*dG*dT*d[5mC]*dT*kG*kG*kG; antisense) [compound 829954]”, the “% Inhibition” value is on record as 53%.

Turning to “829955 (k[5mC]*kT*kT*dG*dT*d[5mC]*dA*d[5mC]*d[5mC]*d[5mC]*dG*dT*d[5mC]*kT*kG*kG; antisense) [compound 829955]”, the “% Inhibition” value stood at 52%.

As for “829957 (k[5mC]*kA*k[5mC]*d[5mC]*dT*dT*dG*dT*d[5mC]*dA*d[5mC]*d[5mC]*d[5mC]*kG*kT*k[5mC]; antisense) [compound 829957]”, the “% Inhibition” value is reported as 41%.

As for “829958 (kG*k[5mC]*kA*d[5mC]*d[5mC]*dT*dT*dG*dT*d[5mC]*dA*d[5mC]*d[5mC]*k[5mC]*kG*kT; antisense) [compound 829958]”, the “% Inhibition” value is on record as 51%.

“829959 (kT*kT*kA*dT*dT*dA*dA*dT*dG*dG*dT*d[5mC]*dT*kG*k[5mC]*kT; antisense) [compound 829959]”: the “% Inhibition” value is listed as 12%.

On to “829960 (kA*kT*kT*dA*dT*dT*dA*dA*dT*dG*dG*dT*d[5mC]*kT*kG*k[5mC]; antisense) [compound 829960]”, for which the “% Inhibition” value stood at 17%.

Take “829961 (kT*kG*kA*dT*dT*dA*dT*dT*dA*dA*dT*dG*dG*kT*k[5mC]*kT; antisense) [compound 829961]”: the “% Inhibition” value was determined as 14%.

Regarding “829962 (k[5mC]*kT*kG*dA*dT*dT*dA*dT*dT*dA*dA*dT*dG*kG*kT*k[5mC]; antisense) [compound 829962]”, the “% Inhibition” value worked out at 19%.

For the substance “829963 (k[5mC]*k[5mC]*kT*dA*dG*dT*dT*d[5mC]*dG*d[5mC]*dA*dG*dA*kG*kT*k[5mC]; antisense) [compound 829963]”, the “% Inhibition” value was 46%.

Turning to “829964 (k[5mC]*kA*k[5mC]*d[5mC]*dT*dA*dG*dT*dT*d[5mC]*dG*d[5mC]*dA*kG*kA*kG; antisense) [compound 829964]”, the “% Inhibition” value is on record as 3%.

On to “829965 (k[5mC]*kT*k[5mC]*dA*d[5mC]*d[5mC]*dT*dA*dG*dT*dT*d[5mC]*dG*k[5mC]*kA*kG; antisense) [compound 829965]”, for which the “% Inhibition” value was found to be 0%.

“829966 (kT*kT*k[5mC]*d[5mC]*d[5mC]*dA*dG*dG*dA*dG*dG*dG*dT*kA*kT*kG; antisense) [compound 829966]”: the “% Inhibition” value was 0%.

In the case of “829967 (k[5mC]*k[5mC]*k[5mC]*d[5mC]*d[5mC]*dA*dG*dG*dG*dA*dA*dT*dG*k[5mC]*k[5mC]*k[5mC]; antisense) [compound 829967]”, the “% Inhibition” value was found to be 0%.

Consider “829968 (kA*kA*k[5mC]*d[5mC]*d[5mC]*d[5mC]*d[5mC]*dA*dG*dG*dG*dA*dA*kT*kG*k[5mC]; antisense) [compound 829968]”, for which the “% Inhibition” value is reported as 30%.

Take “829969 (kG*kA*kA*d[5mC]*d[5mC]*d[5mC]*d[5mC]*d[5mC]*dA*dG*dG*dG*dA*kA*kT*kG; antisense) [compound 829969]”: the “% Inhibition” value stood at 17%.

With “829970 (kT*kG*kG*dA*dA*dG*dG*dG*dA*dA*d[5mC]*d[5mC]*d[5mC]*k[5mC]*k[5mC]*kA; antisense) [compound 829970]”, the “% Inhibition” value is 0%.

With “829971 (kG*k[5mC]*k[5mC]*dA*d[5mC]*dA*d[5mC]*dA*d[5mC]*d[5mC]*dT*d[5mC]*dA*kA*k[5mC]*kG; antisense) [compound 829971]”, the “% Inhibition” value is 20%.

Take “829972 (k[5mC]*kT*k[5mC]*dG*dG*d[5mC]*d[5mC]*dA*d[5mC]*dA*d[5mC]*dA*d[5mC]*k[5mC]*kT*k[5mC]; antisense) [compound 829972]”: the “% Inhibition” value turned out to be 22%.

On to “829973 (kA*kA*kG*dA*dG*dG*d[5mC]*d[5mC]*dG*d[5mC]*d[5mC]*dT*dG*kG*k[5mC]*kG; antisense) [compound 829973]”, for which the “% Inhibition” value is on record as 17%.

As to “829974 (kA*kA*kA*dA*dG*dA*dG*dG*d[5mC]*d[5mC]*dG*d[5mC]*d[5mC]*kT*kG*kG; antisense) [compound 829974]”, the “% Inhibition” value turned out to be 27%.

Regarding “829975 (k[5mC]*kA*kA*dA*dA*dG*dA*dG*dG*d[5mC]*d[5mC]*dG*d[5mC]*k[5mC]*kT*kG; antisense) [compound 829975]”, the “% Inhibition” value was 32%.

“829976 (kA*k[5mC]*kA*dA*dA*dA*dG*dA*dG*dG*d[5mC]*d[5mC]*dG*k[5mC]*k[5mC]*kT; antisense) [compound 829976]”: the “% Inhibition” value is on record as 10%.

In the case of “829977 (kT*kA*kG*d[5mC]*dT*dG*dT*d[5mC]*dA*dG*dA*dT*dA*kA*kA*k[5mC]; antisense) [compound 829977]”, the “% Inhibition” value is 35%.

“829978 (kA*kT*kA*dT*dT*dT*dA*dG*d[5mC]*dT*dG*dT*d[5mC]*kA*kG*kA; antisense) [compound 829978]”: the “% Inhibition” value amounted to 50%.

Take “829979 (kT*kG*kA*dT*dA*dT*dT*dT*dA*dG*d[5mC]*dT*dG*kT*k[5mC]*kA; antisense) [compound 829979]”: the “% Inhibition” value is on record as 49%.

Take “829981 (kG*kT*kG*dA*dT*dT*dG*d[5mC]*d[5mC]*dT*dT*dG*dA*kT*kA*kT; antisense) [compound 829981]”: the “% Inhibition” value was 14%.

For “829982 (k[5mC]*kG*kG*dT*dG*dA*dT*dT*dG*d[5mC]*d[5mC]*dT*dT*kG*kA*kT; antisense) [compound 829982]”, the “% Inhibition” value worked out at 44%.

Take “829983 (kG*kG*k[5mC]*dG*dG*dT*dG*dA*dT*dT*dG*d[5mC]*d[5mC]*kT*kT*kG; antisense) [compound 829983]”: the “% Inhibition” value stood at 43%.

As to “829984 (kA*kG*kG*d[5mC]*dG*dG*dT*dG*dA*dT*dT*dG*d[5mC]*k[5mC]*kT*kT; antisense) [compound 829984]”, the “% Inhibition” value is given as 0%.

Consider “829985 (kG*kA*kG*dG*d[5mC]*dG*dG*dT*dG*dA*dT*dT*dG*k[5mC]*k[5mC]*kT; antisense) [compound 829985]”, for which the “% Inhibition” value is 16%.

Take “829986 (k[5mC]*kG*kA*dG*dG*d[5mC]*dG*dG*dT*dG*dA*dT*dT*kG*k[5mC]*k[5mC]; antisense) [compound 829986]”: the “% Inhibition” value was 28%.

For “829987 (k[5mC]*k[5mC]*kG*d[5mC]*dG*dA*dG*dG*d[5mC]*dG*dG*dT*dG*kA*kT*kT; antisense) [compound 829987]”, the “% Inhibition” value was determined as 6%.

“829988 (kG*k[5mC]*k[5mC]*dG*d[5mC]*dG*dA*dG*dG*d[5mC]*dG*dG*dT*kG*kA*kT; antisense) [compound 829988]”: the “% Inhibition” value is 27%.

For the origin of these results see US10517889B2, “Modulators of SMAD7 expression” (Ionis Pharmaceuticals, Inc., priority 2017, dated 2019).
